Experimental data reported in patent US20140243375A1, “ISOXAZOLINE DERIVATIVES AS INSECTICIDAL COMPOUNDS” (Syngenta Participations AG, priority 2011, published 2014).

Legend:
Assay type in all cases: in vivo
Diabrotica balteata = Diabrotica balteata (corn root worm) L2 larvae test on artificial diet; conditions: 120 h, application rate 200 ppm (concentration in well 18 ppm), larval mortality and growth regulation after 5 days
Description: (§1) This Example illustrates the pesticidal/insecticidal properties of compounds of formula (I). Tests were performed as follows: Diabrotica balteata (Corn Root Worm): A 24-well microtiter plate (MTP) with artificial diet was treated with test solutions at an application rate of 200 ppm (concentration in well 18 ppm) by pipetting. After drying, the MTP's were infested with L2 larvae (6-10 per well). After an incubation period of 5 days, samples were checked for larval mortality and growth regulation.

Heliothis virescens = Heliothis virescens (tobacco budworm) egg test on artificial diet; conditions: 96 h, application rate 200 ppm (concentration in well 18 ppm), eggs on artificial diet, egg mortality, larval mortality, growth regulation after 4 days
Description: This Example illustrates the pesticidal/insecticidal properties of compounds of formula (I). Tests were performed as follows: Heliothis virescens (Tobacco Budworm): Eggs (0-24 h old) were placed in 24-well microtiter plate on artificial diet and treated with test solutions at an application rate of 200 ppm (concentration in well 18 ppm) by pipetting. After an incubation period of 4 days, samples were checked for egg mortality, larval mortality, and growth regulation.

Spodoptera littoralis = Spodoptera littoralis (Egyptian cotton leafworm) cotton leaf disc spray test; conditions: foliar, 72 h, application rate 200 ppm, sprayed cotton leaf discs, mortality, feeding behavior, growth regulation 3 days after treatment
Description: This Example illustrates the pesticidal/insecticidal properties of compounds of formula (I). Tests were performed as follows: Spodoptera littoralis (Egyptian Cotton Leafworm): Cotton leaf discs were placed on agar in a 24-well microtiter plate and sprayed with test solutions at an application rate of 200 ppm. After drying, the leaf discs were infested with […]. The samples were checked for mortality, feeding behavior, and growth regulation 3 days after treatment (DAT).

Thrips tabaci = Thrips tabaci (onion thrips) sunflower leaf disc spray test; conditions: foliar, 168 h, application rate 200 ppm, sprayed sunflower leaf discs, mixed ages, mortality after 7 days
Description: This Example illustrates the pesticidal/insecticidal properties of compounds of formula (I). Tests were performed as follows: Thrips Tabaci (Onion Thrips): Sunflower leaf discs were placed on agar in a 24-well microtiter plate and sprayed with test solutions at an application rate of 200 ppm. After drying, the leaf discs were infested with a thrips population of mixed ages. After an incubation period of 7 days, samples were checked for mortality.

Tetranychus urticae = Tetranychus urticae (two-spotted spider mite) bean leaf disc spray test; conditions: foliar, 192 h, application rate 200 ppm, sprayed bean leaf discs, mixed ages, egg, larval and adult mortality 8 days later
Description: This Example illustrates the pesticidal/insecticidal properties of compounds of formula (I). Tests were performed as follows: Tetranychus urticae (Two-Spotted Spider Mite): Bean leaf discs on agar in 24-well microtiter plates were sprayed with test solutions at an application rate of 200 ppm. After drying, the leaf discs are infested with mite populations of mixed ages. 8 days later, discs are checked for egg mortality, larval mortality, and adult mortality.

Plutella xylostella = Plutella xylostella (diamond back moth) L2 larvae test on artificial diet; conditions: 144 h, application rate 200 ppm (concentration in well 18 ppm), larval mortality and growth regulation after 6 days
Description: as §1, with “Plutella xylostella (Diamond Back Moth):” for “Diabrotica balteata (Corn Root Worm): A”, “(7-12” for “(6-10”, “6” for “5”

Measured: pest or weed control at 200 ppm

CCN1OCC(NC(=O)c2ccc(C3=NOC(c4cc(Cl)cc(C(F)(F)F)c4)(C(F)(F)F)C3)cc2C)C1=O (stereo not drawn) [Compound A12]
≥ 80%: Diabrotica balteata | Heliothis virescens | Spodoptera littoralis | Thrips tabaci | Tetranychus urticae | Plutella xylostella

CCN1OCC(NC(=O)c2ccc(C3=NOC(c4cc(Cl)cc(Br)c4)(C(F)(F)F)C3)cc2C)C1=O (stereo not drawn) [Compound A10]
≥ 80%: Diabrotica balteata | Heliothis virescens | Spodoptera littoralis | Thrips tabaci | Tetranychus urticae | Plutella xylostella

CCN1OCC(NC(=O)c2ccc(C3=NOC(c4cc(Cl)c(Cl)c(Cl)c4)(C(F)(F)F)C3)cc2C)C1=O (stereo not drawn) [Compound A02]
≥ 80%: Diabrotica balteata | Heliothis virescens | Spodoptera littoralis | Thrips tabaci | Tetranychus urticae | Plutella xylostella

CCN1OCC(NC(=O)c2ccc(C3=NOC(c4cc(Cl)c(F)c(Cl)c4)(C(F)(F)F)C3)cc2C)C1=O (stereo not drawn) [Compound A04]
≥ 80%: Diabrotica balteata | Heliothis virescens | Spodoptera littoralis | Thrips tabaci | Tetranychus urticae | Plutella xylostella

Cc1cc(C2=NOC(c3cc(Cl)cc(Br)c3)(C(F)(F)F)C2)ccc1C(=O)NC1CON(CC(F)(F)F)C1=O (stereo not drawn) [Compound A25]
≥ 80%: Diabrotica balteata | Heliothis virescens | Spodoptera littoralis | Thrips tabaci | Tetranychus urticae | Plutella xylostella

CCN1OCC(NC(=O)c2ccc(C3=NOC(c4cc(Cl)cc(Cl)c4)(C(F)(F)F)C3)cc2C)C1=O (stereo not drawn) [Compound A07]
≥ 80%: Diabrotica balteata | Heliothis virescens | Spodoptera littoralis | Thrips tabaci | Tetranychus urticae | Plutella xylostella

Cc1cc(C2=NOC(c3cc(Cl)c(F)c(Cl)c3)(C(F)(F)F)C2)ccc1C(=O)NC1CON(CC(F)(F)F)C1=O (stereo not drawn) [Compound A20]
≥ 80%: Diabrotica balteata | Heliothis virescens | Spodoptera littoralis | Thrips tabaci | Tetranychus urticae | Plutella xylostella

Cc1cc(C2=NOC(c3cc(Cl)cc(Cl)c3)(C(F)(F)F)C2)ccc1C(=O)NC1CON(CC(F)(F)F)C1=O (stereo not drawn) [Compound A22]
≥ 80%: Diabrotica balteata | Heliothis virescens | Spodoptera littoralis | Thrips tabaci | Tetranychus urticae | Plutella xylostella

Cc1cc(C2=NOC(c3cc(Cl)cc(Cl)c3)(C(F)(F)F)C2)ccc1C(=O)NC1CON(CC(F)F)C1=O (stereo not drawn) [Compound A15]
≥ 80%: Diabrotica balteata | Heliothis virescens | Spodoptera littoralis | Thrips tabaci | Tetranychus urticae | Plutella xylostella

Cc1cc(C2=NOC(c3cc(Cl)cc(Cl)c3)(C(F)(F)F)C2)ccc1C(=O)NC1CON(C)C1=O (stereo not drawn) [Compound A01]
≥ 80%: Diabrotica balteata | Heliothis virescens | Spodoptera littoralis | Thrips tabaci | Tetranychus urticae | Plutella xylostella

Cc1cc(C2=NOC(c3cc(Cl)c(Cl)c(Cl)c3)(C(F)(F)F)C2)ccc1C(=O)NC1CON(CC(F)(F)F)C1=O (stereo not drawn) [Compound A16]
≥ 80%: Diabrotica balteata | Heliothis virescens | Spodoptera littoralis | Thrips tabaci | Tetranychus urticae | Plutella xylostella
